Measured values: patent publication US20220326218A1, “COMPOSITION AND METHOD FOR INHIBITING BORC COMPLEX TO TREAT CANCERS WITH NF1 DEFICIENCY AND DYSREGULATED RAS SIGNALING” (THE TRUSTEES OF DARTMOUTH COLLEGE, priority 2019, published 2022)

Experiments:
[1] = test system: lysosomes; test: Immunofluorescence staining of lysosomes (LAMP1) and mitochondria (Tom20); type: cell-based, human; conditions: U87-MG, 2 μM, 16 h
Protocol: (§1) U87-MG cells were plated at a concentration of 50,000 cells/well onto precoated poly-D-lysine (PDL) coverslips (Neuvitro) in 24-well plates (Falcon) and allowed to adhere overnight. Medium was removed and replaced with treatment-laced media normalized to DMSO, and cells were treated for the indicated timepoints. At the time of collection, cells were washed with PBS and fixed with 4% paraformaldehyde without methanol (EMS) or 100% methanol (Fischer). Coverslips were washed with Tween20-containing PBS (PBST; Fischer). Following permeabilization with 0.5% Triton X-100 in PBS (Fischer), coverslips were blocked for 1 h at room temperature in IF Buffer (0.05% azide, 0.2% Triton X-100, 2% Normal Goat Serum or, for 8-OHG, Normal Donkey Serum). The following primary antibodies were used for 1 hour at room temperature unless specified: AlexaFluor 488 pre-conjugated anti-γ-H2AX (N1-431) mouse monoclonal (30 minutes; BD Biosciences), anti-cleaved caspase 3 (Asp175) rabbit polyclonal (Cell Signaling), anti-SQSTM1/p62 (D-3) mouse monoclonal (Santa Cruz), anti-8-Hydroxyguanosine goat polyclonal (1:200; Millipore), anti-LAMP1 (D4O1S) mouse monoclonal (O/N at 4° C.; Cell Signaling), anti-BNIP3L/Nix (D4R4B) rabbit monoclonal (O/N at 4° C.; Cell Signaling), anti-FLAG (M2) mouse monoclonal (2 hours at 37° C.; Sigma-Aldrich). Following washes with PBST, cells were stained with goat anti-rabbit or goat anti-mouse AlexaFluor 488 or AlexaFluor 594 (or, for 8-OHG, donkey anti-goat AlexaFluor 488) secondary antibody at 1:800 for 1 hour at room temperature (Jackson ImmunoResearch). […]
All confocal images were acquired on a Nikon AIRSi confocal microscope equipped with a 60× 1.4 NA oil objective, a DU4 detector unit, and Nikon Elements software. Otherwise, images were acquired on a Zeiss Axio Imager.Z1 equipped with a Zeiss EC Plan-NEOFLUAR 40× 1.3 NA oil objective, a Zeiss AxioCam MRm camera, a Lumen Dynamics Series 120 Q X-Cite Fluorescence Illuminator, and AxioVision SE64 Rel. […]

[2] = test system: erg6Δ yeast; test: Yeast dose response curves, control strains; type: cell-based, Saccharomyces cerevisiae; conditions: 30° C., 18 h, normalized to DMSO
Protocol: S. cerevisiae strains were plated at an OD600 of 0.05 in 96-well plates (Falcon) and treated with SC complete containing compound starting at 100 μM, followed by 2-fold serial dilutions to generate a 10-point range of concentrations normalized with DMSO; one row was treated with DMSO as a control. Yeast were incubated for 18 h. To process, the optical density was read using a Spectramax M2 (Molecular Devices) at a wavelength of 600 nm and normalized to DMSO. Each experiment was repeated 2-3 times with 4 technical replicates per experiment.
A high-throughput screen in Saccharomyces cerevisiae lacking a yeast homologue of NF1, IRA2 (ira2Δ) was developed and carried out to identify tool compounds that elicited synthetic lethality with NF1 loss (15). ira2Δ yeast have increased RAS-GTP, which results in increased MAPK and PKA signaling analogous to the pathways that are activated in NF1-deficient Schwann cells (17). […]
More than 5,100 structurally diverse compounds selected from and representative of a >340,000-compound library were screened. […] To determine whether Y102 was also effective in human tumor cells, the efficacy of Y102 was evaluated in two NF1-deficient human cancer cell line models of glioblastoma, U87-MG and U251-MG, and an NF1-deficient Neurofibromatosis type 1-associated MPNST cell line sNF96.2. […]

[3] = test system: LC3-II; test: Western immunoblotting of autophagy marker LC3-I/II; type: cell-based, human; conditions: U87-MG, 12 h treatment +/- 12 h HCQ co-treatment, total 24 h
Protocol: U87-MG cells were plated at 500,000 cells/well in 6-well plates and allowed to adhere overnight (Falcon). Medium was removed and replaced with fresh medium containing drugs or compounds for the indicated timepoints. Cells were collected after treatment by washing with PBS, harvested with trypsin plus agitation to detach cells, pelleted in a centrifuge and resuspended in PBS to wash. Cells were transferred to 1.5 mL microcentrifuge tubes, pelleted, and resuspended in RIPA lysis buffer (50 mM Tris pH 8.0, 150 mM NaCl, 1% nonidet P40, 0.5% sodium deoxycholate, and 0.05% SDS) containing 1 mM NaVO4, 1 mM NaF, 1 mM phenylmethylsulfonyl fluoride, 0.1 μg/mL antipain, 1 μM aprotinin, 100 μM benzamidine HCl, 0.1 μg/mL leupeptin, 0.1 μg/mL pepstatin, and 0.1 μg/mL soybean trypsin inhibitor. Protein was quantified using a BCA assay kit (Pierce). 50 μg of protein was prepared in 1× Laemmli sample buffer (50 mM Tris pH 6.8, 0.02% w/v bromophenol blue, 2% w/v SDS, 10% v/v glycerol, 1% v/v beta-mercaptoethanol, 12.5 mM EDTA) and separated by SDS-PAGE on a 4-15% polyacrylamide gradient gel (Bio-Rad). […]

[4] = test system: γ-H2AX; test: Immunofluorescence staining for DNA damage marker γ-H2AX; type: cell-based, human; conditions: U87-MG, 2 μM, 24 h
Protocol: as §1, with “Sigma-Aldrich).” for “Sigma-Aldrich). Following washes with PBST, cells were stained with goat anti-rabbit or goat anti-mouse AlexaFluor 488 or AlexaFluor 594 (or, for 8-OHG, donkey anti-goat AlexaFluor 488) secondary antibody at 1:800 for 1 hour at room temperature (Jackson ImmunoResearch).”

## Cn1cnnc1S/C=C/C(=O)c1ccc(F)cc1 [Y102]
[1]; LAMP1
  localization of lysosomes: perinuclear region
  lysosome expression: increase
[1]; LAMP1/Tom20, ratiometric analysis, confocal
  colocalization between lysosomes and mitochondria: observed
[2]
  effect on growth of control strains at concentrations inhibitory to erg6Δira2Δ yeast: no effect
[3]
  LC3-II accumulation (western immunoblotting): did not result in LC3-II accumulation
[4]
  change in γ-H2AX expression: no significant change
